For series [1], the target named is T1, AHR (UniProt P35869).
T1 construct: IC50
T1 sequence (P35869 1-848): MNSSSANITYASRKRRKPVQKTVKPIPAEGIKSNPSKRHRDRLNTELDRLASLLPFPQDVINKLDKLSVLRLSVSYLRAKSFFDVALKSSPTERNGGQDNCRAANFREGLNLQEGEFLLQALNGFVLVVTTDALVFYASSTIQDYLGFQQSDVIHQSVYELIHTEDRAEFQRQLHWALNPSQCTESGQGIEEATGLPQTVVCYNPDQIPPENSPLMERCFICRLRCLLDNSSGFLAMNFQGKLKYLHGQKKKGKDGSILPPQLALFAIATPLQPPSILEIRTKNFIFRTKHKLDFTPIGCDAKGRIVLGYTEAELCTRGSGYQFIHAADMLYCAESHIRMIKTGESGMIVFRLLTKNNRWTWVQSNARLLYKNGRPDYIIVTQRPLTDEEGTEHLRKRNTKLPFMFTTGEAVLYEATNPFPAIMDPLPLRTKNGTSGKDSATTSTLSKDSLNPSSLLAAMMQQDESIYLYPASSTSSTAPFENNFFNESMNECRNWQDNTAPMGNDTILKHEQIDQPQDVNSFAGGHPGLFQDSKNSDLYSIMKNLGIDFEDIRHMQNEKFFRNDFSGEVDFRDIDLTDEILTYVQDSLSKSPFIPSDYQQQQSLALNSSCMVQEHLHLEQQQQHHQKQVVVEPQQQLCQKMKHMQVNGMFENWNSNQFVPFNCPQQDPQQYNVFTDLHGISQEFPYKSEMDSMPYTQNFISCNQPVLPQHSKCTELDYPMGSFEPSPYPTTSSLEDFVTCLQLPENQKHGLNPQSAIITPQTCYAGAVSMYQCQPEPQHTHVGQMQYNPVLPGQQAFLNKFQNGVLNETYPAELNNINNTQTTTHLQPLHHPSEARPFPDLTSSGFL
Put plainly: DRE-Luciferase Reporter Assay (Alternate Method) (Example 1B). Type of series: cell-based, murine or human. Conditions: cell line and AHR activating ligand not specified.

Series [2] can be described thus: Mouse Pharmacokinetic Study (Example 1C). Format: in vivo. Particulars: mouse, plasma, CD-1 mice; for Vd: read-out: Vdss. As to the method:
Formulations of compounds set forth in Table 4 were administered intravenously or orally via gavage to CD-1 mice. Typically, at 0.167, 0.5, 1, 2, 4, 6, 12, and 24 hours post-dose, blood was collected and processed to plasma by centrifugation and stored at −80° C. until analysis.
Internal standard was added to each sample prior to protein precipitation with acetonitrile. The precipitates were filtered through a Phree phospholipid removal filter plate and the samples were analyzed by LC/MS/MS. A standard curve was prepared in plasma from typically from 1.0 ng/mL to 3000 ng/mL and processed in the same manner as the samples. Sample analysis was typically performed on a suitable LC/MS/MS system fitted with an analytical UPLC column and compounds eluted from the analytical column with a gradient from 30-95% 0.1% formic acid (v/v) in ACN: 0.1% formic acid (v/v) in water. Mass spectrometric detection of test compound and the internal standard was performed by MRM in positive mode. The pharmacokinetics of each compound were analyzed by Phoenix WinNonlin software (Pharsight, St. Louis, Mo.) via non-compartmental analysis.

Series [3] in a line: In Vitro Mouse liver S9 Metabolic Stability Assay (Example 1D). Type of series: in vitro ADME. Conditions: CD-1 mouse liver S9, 1 μM compound, 1 mg/mL S9 protein, 37° C., NADPH regenerating system, UDPGA, PAPS. The procedure: CD-1 mouse liver S9 were purchased from Corning or XenoTech LLC or BioreclamationIVT, LLC or WuXi prepared. The cells were stored at −80° C. in a freezer before use. β-Nicotinamide adenine dinucleotide phosphate (NADP), Glucose 6-phosphate (G6P), Glucose 6-phosphate dehydrogenase from yeast (G6PDH), Uridine 5′-diphophoglucuronic acid trisodium salt (UDPGA) and Adenosine 3′-phosphate 5′-phosphosulfate lithium salt hydrate (PAPS) were available commercially from Sigma.
Compounds were diluted in DMSO to make 10 mM stock solution. 5 μL of this stock solution (10 mM, DMSO) was diluted with 45 μL DMSO and 450 μL 50% Methanol/Water to make intermediate stock solution (100 μM, 45% MeOH, 10% DMSO). 50 μL of intermediate stock solution was diluted with 450 μL 100 mM phosphate buffer to make a final stock solution (10 μM, 4.5% MeOH, 1% DMSO). 10 uL of final stock solution was added to 90 uL liver S9 system (final concentration of 1 μM, 0.45% MeOH, 0.1% DMSO).
Test compounds were incubated at 37° C. with liver S9 (pooled from multiple donors) at 1 μM in the presence of a NADPH regenerating system, UDPGA, and PAPS at 1 mg/mL S9 protein. Time samples (0 and 60 minutes) were removed and immediately mixed with cold acetonitrile containing internal standard (IS). Samples were analyzed by LC/MS/MS and disappearance of test compounds were assessed based on peak area ratios of analyte /IS (no standard curve). All samples were injected and analyzed using LC-MS/MS. The analyte/internal standard peak area ratios were converted to percentage remaining (% Remaining) with the following equation: % Remaining at 60 min=(Peak area ratio of analyte to IS at 60 min/Peak area ratio of analyte to IS at t=0)×100%. Table 5. Mouse Stability Data According to Example 1D.

The text below walks through data of US11358969B2, “Indole AHR inhibitors and uses thereof” (Ikena Oncology, Inc., priority 2017, dated 2022).

Structures are written as SMILES.

`C[C@@H](O)c1cnn2c(NCCc3c[nH]c4ccccc34)cc(-c3cncc(F)c3)nc12` [I-222a, (1R)-1-[5-(5-Fluoro-3-pyridyl)-7-[2-(1H-indol-3-yl)ethylamino]pyrazolo[1,5-a]pyrimidin-3-yl]ethanol] showed a 50% inhibitory concentration (IC50) in series [1] of under 500 nM. Moreover, in series [2] (po, 30 mg/kg), the bioavailability is 16%, the total exposure AUC(0-inf) was found to be 2240 ng·h/mL, the AUC(0-t) stood at 2230 ng·h/mL and the Cmax stood at 2870 ng/mL. Further, in series [2] (po, 30 mg/kg), the Tmax was determined as 0.2 h and the half-life is 1.7 h. In series [2] (iv, 3 mg/kg), this compound gave an AUC(0-inf) of 1330 ng·h/mL, an AUC(0-t) of 1330 ng·h/mL, a clearance of 36.9 mL/min/kg and a half-life of 2.4 h. The Vd in series [2] (iv, 3 mg/kg) is 1.5 L/kg. In addition, in series [3], the “Mouse S9 Stability: % Remaining After 60 Minutes” value is listed as 1%.
In series [1], `C[C@@H](O)c1cnn2c(N[C@@H]3CCc4[nH]c5ccccc5c4C3)cc(-c3cncc(F)c3)nc12` [I-198a, (1R)-1-[5-(5-Fluoro-3-pyridyl)-7-[[(3R)-2,3,4,9-tetrahydro-1H-carbazol-3-yl]amino]pyrazolo[1,5-a]pyrimidin-3-yl]ethanol] came in with an IC50 of under 500 nM. In series [2] (po, 30 mg/kg), the bioavailability is 52%, the AUC(0-inf) is 4050 ng·h/mL, the area under the curve AUC(0-t) was 3960 ng·h/mL and the Cmax came out at 721 ng/mL. In series [2] (po, 30 mg/kg), the Tmax turned out to be 1 h and the half-life is 4.2 h. In series [2] (iv, 3 mg/kg), this compound had an AUC(0-inf) of 772 ng·h/mL, an exposure AUC(0-t) of 765 ng·h/mL, a clearance of 64.8 mL/min/kg and a half-life of 4.3 h. In series [2] (iv, 3 mg/kg), the Vd came to 12.1 L/kg. The “Mouse S9 Stability: % Remaining After 60 Minutes” value in series [3] is reported as 30%.
With `Cc1cnn2c(N[C@H]3Cc4ccc(O)cc4C3)cc(-c3cncc(F)c3)nc12` [I-219, (2S)-2-[[5-(5-fluoro-3-pyridyl)-3-methyl-pyrazolo[1,5-a]pyrimidin-7-yl]amino]indan-5-ol], in series [1], the IC50 is under 500 nM. For the same compound, in series [2] (po, 30 mg/kg), the bioavailability came out at 2%, the AUC(0-inf) was determined as 215 ng·h/mL, the AUC(0-t) stood at 132 ng·h/mL and the Cmax is 48.9 ng/mL. The Tmax in series [2] (po, 30 mg/kg) worked out at 0.2 h. In series [2] (iv, 3 mg/kg), this compound had an AUC(0-inf) of 682 ng·h/mL, an AUC(0-t) of 678 ng·h/mL, a clearance of 73.3 mL/min/kg and a half-life of 0.7 h. The Vd in series [2] (iv, 3 mg/kg) was found to be 2.4 L/kg. In addition, the “Mouse S9 Stability: % Remaining After 60 Minutes” value in series [3] is given as 5%.
`C[C@H](O)c1cnn2c(NCCc3c[nH]c4ccccc34)cc(-c3cncc(F)c3)nc12` [I-222b, (1S)-1-[5-(5-Fluoro-3-pyridyl)-7-[2-(1H-indol-3-yl)ethylamino]pyrazolo[1,5-a]pyrimidin-3-yl]ethanol] had a 50% inhibitory concentration (IC50) in series [1] of under 500 nM. For the same compound, in series [2] (po, 30 mg/kg), the bioavailability was determined as 51%, the total exposure AUC(0-inf) was 2870 ng·h/mL, the AUC(0-t) amounted to 2860 ng·h/mL and the highest level (Cmax) was 2170 ng/mL. In addition, in series [2] (po, 30 mg/kg), the Tmax was determined as 0.2 h and the half-life is 3.3 h. Besides, in series [2] (iv, 3 mg/kg), the area under the curve AUC(0-inf) is 567 ng·h/mL, the AUC(0-t) is 564 ng·h/mL, the clearance is 88.1 mL/min/kg and the half-life is 1.8 h. The Vd in series [2] (iv, 3 mg/kg) stood at 2 L/kg. In addition, the “Mouse S9 Stability: % Remaining After 60 Minutes” value in series [3] is 0%.
In the case of `CC(C)(O)c1cnn2c(NCCc3c[nH]c4ccccc34)cc(-c3cncc(F)c3)nc12` [I-177, 2-[5-(5-Fluoro-3-pyridyl)-7-[2-(1H-indol-3-yl)ethylamino]pyrazolo[1,5-a]pyrimidin-3-yl]propan-2-ol], the IC50 in series [1] is under 500 nM. Besides, the “Mouse S9 Stability: % Remaining After 60 Minutes” value in series [3] is given as 2%.
On the same counts, the results for `NC(=O)c1cnn2c(NCCc3c[nH]c4ccccc34)cc(-c3cncc(F)c3)nc12` [I-78, 5-(5-Fluoro-3-pyridyl)-7-[2-(1H-indol-3-yl)ethylamino]pyrazolo[1,5-a]pyrimidine-3-carboxamide] are under 500 nM and 1%.
In turn, `CC(C)c1ccc2c(N[C@@H]3CCc4[nH]c5ccccc5c4C3)nc(-c3cncc(F)c3)nn12` [I-156] yielded an IC50 in series [1] of over 1500 nM. In addition, the “Mouse S9 Stability: % Remaining After 60 Minutes” value in series [3] was determined as 28%.
Compound `CON(C)C(=O)c1cnn2c(NCCc3c[nH]c4ccccc34)cc(-c3cncc(F)c3)nc12` [I-92, 5-(5-Fluoro-3-pyridyl)-7-[2-(1H-indol-3-yl)ethylamino]-N-methoxy-N-methyl-pyrazolo[1,5-a]pyrimidine-3-carboxamide] registered an IC50 in series [1] of under 500 nM. For the same compound, in series [3], the “Mouse S9 Stability: % Remaining After 60 Minutes” value was found to be 0%.
On the same counts, the results for `CC(C)Oc1cc(-c2cncc(F)c2)nc(NCCc2c[nH]c3ccccc23)n1` [I-72, 4-(5-Fluoro-3-pyridyl)-N-[2-(1H-indol-3-yl)ethyl]-6-isopropoxy-pyrimidin-2-amine] are under 500 nM and 3%.
`CC(C)Oc1cc(NCCc2c[nH]c3ccccc23)nc(-c2cncc(F)c2)n1` [I-21, 2-(5-Fluoro-3-pyridyl)-N-[2-(1H-indol-3-yl)ethyl]-6-isopropoxy-pyrimidin-4-amine] showed an IC50 in series [1] of under 500 nM. Besides, in series [3], the “Mouse S9 Stability: % Remaining After 60 Minutes” value is listed as 26%.
As for `CC(C)c1cnn2c(NCCc3c[nH]c4cccnc34)nc(-c3cncc(F)c3)nc12` [I-101, 2-(5-Fluoro-3-pyridyl)-8-isopropyl-N-[2-(1H-pyrrolo[3,2-b]pyridin-3-yl)ethyl]pyrazolo[1,5-a][1,3,5]triazin-4-amine], the IC50 in series [1] was under 500 nM. For the same compound, the “Mouse S9 Stability: % Remaining After 60 Minutes” value in series [3] amounted to 1%.
In the same order, the values of `CC(C)(C)c1cnn2c(NCCc3c[nH]c4ccccc34)cc(-c3cncc(F)c3)nc12` [I-90, 3-tert-Butyl-5-(5-fluoro-3-pyridyl)-N-[2-(1H-indol-3-yl)ethyl]pyrazolo[1,5-a]pyrimidin-7-amine] are under 500 nM and 11%.
In the same order, the values of `Fc1cncc(-c2cc(NCCc3c[nH]c4ccccc34)n3ncc(C(F)(F)F)c3n2)c1` [I-47, 5-(5-Fluoro-3-pyridyl)-N-[2-(1H-indol-3-yl)ethyl]-3-(trifluoromethyl)pyrazolo[1,5-a]pyrimidin-7-amine] are under 500 nM and 50%.
On to `CC(C)c1cnn2c(NCCc3c[nH]c4ccccc34)nc(-c3cncc(F)c3)nc12` [I-16, 2-(5-Fluoro-3-pyridyl)-N-[2-(1H-indol-3-yl)ethyl]-8-isopropyl-pyrazolo[1,5-a][1,3,5]triazin-4-amine], for which the IC50 in series [1] is under 500 nM. Moreover, in series [3], the “Mouse S9 Stability: % Remaining After 60 Minutes” value worked out at 2%.
On the same counts, the results for `Fc1cncc(-c2nc(NCCc3c[nH]c4ccccc34)cc(N3CCCC3)n2)c1` [I-105, 2-(5-Fluoro-3-pyridyl)-N-[2-(1H-indol-3-yl)ethyl]-6-pyrrolidin-1-yl-pyrimidin-4-amine] are under 500 nM and 8%.
